Source: patent US4657902A, “Therapeutic use of tin mesoporphyrin” (The Rockefeller University, priority 1985, dated 1987)
pKi: −log10 of the molar value. Like-named read-outs stand apart in the source and are kept apart here.

Key:
heme oxygenase = target: T1, heme oxygenase (Rattus norvegicus, UniProt P06762); test: rat spleen heme oxygenase incubation, in vitro inhibition; type: biochemical; details: for Km: normal Km 3.64 μM, read-out: Km for degradation of heme by heme oxygenase to bile pigment
T1 construct: rat spleen - heme oxygenase incubation mixtures; from tissue; host or cells: rat spleen
T1 sequence (P06762 1-289): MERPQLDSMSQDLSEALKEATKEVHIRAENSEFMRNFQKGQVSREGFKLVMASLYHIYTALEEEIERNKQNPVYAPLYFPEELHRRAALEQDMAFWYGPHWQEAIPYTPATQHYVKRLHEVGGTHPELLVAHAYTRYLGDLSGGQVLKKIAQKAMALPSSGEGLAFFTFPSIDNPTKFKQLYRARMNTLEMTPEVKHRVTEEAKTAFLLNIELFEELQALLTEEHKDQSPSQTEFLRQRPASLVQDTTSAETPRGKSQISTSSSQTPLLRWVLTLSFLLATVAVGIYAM

serum bilirubin [1] = test: experimental postnatal hyperbilirubinemia produced by ALA in 7 day old rats, serum bilirubin; type: in vivo, rat; details: single dose 1 μmol/kg body weight at 0 time, 24 hours
Protocol: (§1) The efficacy of SnMP for controlling hyperbilirubinemia was also examined in a model of experimental postantal hyperbilirubinemia in the rat utilizing the heme precursor […] (ALA) to produce jaundice 7 days after birth (Drummond & Kappas, J. Clin. Invest., 74, 142-149, 1984). AlA (50 μmol/100g body weight) administered to suckling 7 day old neonates at 0,4 and 8 hours produced an approximately 3 fold increase in serum bilirubin levels 24 hours after the initial injection (FIG. 3). […] Heme oxygenase was assayed as earlier described (J. Biol. Chem., 253, 2321-2326, 1978).

hepatic heme oxygenase = hepatic heme oxygenase activity in ALA-treated 7 day old rats; type: in vivo, rat; details: single dose 1 μmol/kg body weight
Protocol: as §1

[2] = system: liver tryptophan pyrrolase; test: liver tryptophan pyrrolase activity and heme saturation after parenteral administration to rats; type: in vivo, rat; details: 1 μmol/kg s.c.
Protocol: With adults afflicted with sickle cell anemia or another condition resulting in increased bilirubin concentration, the dosage unit is normally smaller since in all but the most acute situations, the bilirubin concentration is not as high as in neonates. The standard dosage with adults will normally be from about 2 to 5 mg/kg of body weight. […] In this study SnMP was administered subcutaneously at a dosage level of 1 μmol/kg of body weight to male Sprague-Dawley rats (180-200g). Control animals received an equivalent volume of aqueous isotonic saline. Tissue preparation of liver fractions for enzymic assays were conducted as described by Drummond and Kappas. Proc. Natl. Acad. Sci. USA. 78:6466-6470 (1981). Tryptophan pyrrolase activity was determined both in the absence (holoenzyme) and the presence (total enzyme) of added heme ([…]). The latter enzyme activity was calculated from the linear phase of kynurenine formation. The percent heme saturation for tryptophan pyrrolase was expressed as the ratio of holoenzyme to total enzyme (×100 ). Each data point in the figure represents the mean value of determinations in 3 to 6 animals.

[3] = biliary output of bilirubin, heme and iron in rats; type: in vivo, rat
Protocol: It has been observed that when heme is administered alone to animals such as rats, a large output of biliary bilirubin (mono- and diglucuronide forms) occurs, with a slight output of excess heme.
It is therefore clear that the administration of SnMP to mammals increases the biliary excretion of excess heme and thus of its contained iron atom as well. They make it clear also that the excess heme which accumulates when the rate of bilirubin production is decreased by the administration of SnMP is excreted in the bile and not stored in tissues. More particularly, they make it clear that the administration of SnMP to mammals suffering acute or chronic excess of heme or iron will increase the rate at which such heme or iron will be excreted into the intestinal contents.

serum bilirubin [4] = test: serum bilirubin in newborn rats after a single subcutaneous injection at birth

tin mesoporphyrin [SnMP]
inhibition of heme oxygenase activity (heme oxygenase; 0.025 and 0.05 μM SnMP): marked competitive inhibition
Km (heme oxygenase; SnMP 0.025 μM): 11.1 µM
Km (heme oxygenase; SnMP 0.05 μM): 18.2 µM
in vitro ability to inhibit the production of bilirubin relative to SnPP (heme oxygenase; compared with SnPP): just about as effective in this regard as SnPP
pKi (heme oxygenase; rat spleen heme oxygenase, read-out: inhibition constant Ki for the inhibition of the conversion of heme to bilirubin by heme oxygenase): 7.89
effect on the increase in serum bilirubin produced by ALA (serum bilirubin [1]): substantially diminished
effect on the increase in hepatic heme oxygenase activity associated with ALA administration (hepatic heme oxygenase): prevented the increase
percent heme saturation of tryptophan pyrrolase ([2]; male Sprague-Dawley rats, in two hours): approximately 80%
duration of the initial high tryptophan pyrrolase activity relative to SnPP ([2]; rats, compared with SnPP): maintained for a more extended period of time
output of biliary iron ([3]; bile duct cannulated rats): increase in output of biliary iron
biliary bilirubin output ([3]; rats, SnMP administered with heme): the bilirubin peak will decline
effect on the increase in serum bilirubin 24 hours after birth (serum bilirubin [4]; 1 μmol/kg body weight s.c. once at birth): entirely prevented
effectiveness in vivo in lowering plasma bilirubin / suppressing neonatal jaundice relative to SnPP (serum bilirubin [4]; compared with SnPP): 5-10 times
